Source: patent US20050232896A1, “Cd137 as a proliferation factor for hematopoietic stem cells” (priority 2001, published 2005)

How the values were obtained:
[1] = test system: cells in the peripheral blood; assay: In vivo reconstitution after Alkeran, absolute cell numbers in peripheral blood; set-up: species or system NMRI mice; conditions: after 21 days, average of three mice
Method: (§1) In the next experiment NMRI mice were treated with Alkeran, a cytotoxic drug regularly used for human cancer therapy. Alkeran was given i.p. on days 1, 3 and 5. Mice received 100 μg of CD137-Fc immobilized on protein A or equivalent amounts of immobilized Fc control protein. Three mice were used per group. The relative composition of the bone marrow cells (Table 3) and the absolute number of cells in the peripheral blood (Table 4) were determined after 21 days.

Bone marrow cells = assay: In vivo reconstitution after Alkeran, bone marrow composition; set-up: species or system NMRI mice; conditions: Alkeran experiment, day 21, average of three mice
Method: as §1

[2] = test system: erythroid lineage, human CD34+ progenitors; assay: CELISA lineage assay, erythroid lineage (glycophorin A); assay type: cell-based; conditions: growth factors present
Method: (§2) The effects of CD137 on the different hematopoietic lineages were evaluated using a cell based immunoassay, which quantifies expression of lineage-specific markers (CELISA, BioWhittaker, Walkersville, Md., USA).
(§3) Progenitors for the myeloid and erythroid lineages were normal human CD34+ cells, which had been isolated from the bone marrow of healthy volunteers by positive selection using the “Direct CD34 Progenitor Kit” (Miltenyi, Bergisch Gladbach, Germany). Progenitors for the megakaryocyte lineage were normal human CD34+ cells, which had been isolated from the peripheral blood of healthy G-CSF-treated volunteers.
(§4) 96-well polystyrene plates were precoated with four dilutions of CD137-Fc or Fc control protein at 4° C. overnight or with the dilution buffer PBS. The following additional controls were included in the experiment: no addition; Camptothecin, a cytotoxic compound, at 0.005 μM (condition 1) and at 0.5 μM (condition 2); stem Cell Factor (SCF) at a concentration of 125 ng/ml. […]

[3] = test system: myeloid lineage, human CD34+ progenitors; assay: CELISA lineage assay, myeloid lineage (CD11b); assay type: cell-based; conditions: growth factors present
Method: as §2, §3
96-well polystyrene plates were precoated with four dilutions of CD137-Fc or Fc control protein at 4° C. overnight or with the dilution buffer PBS. […]
In this example, the influence of growth factor concentrations and potential additive or synergistic effects of these growth factors with CD137 were analysed in more detail. […]
Differentiation was assessed per CELISA (BioWhittaker), measuring the expression of the myeloid-specific protein CD11b. Proliferation was determined using the ViaLight system (BioWhittaker), which measures the amount of ATP in the culture. […]

[4] = test system: megakaryocyte lineage, human CD34+ progenitors; assay: CELISA lineage assay, megakaryocyte lineage (CD41a); assay type: cell-based; conditions: growth factors present
Method: as §2, §3, §4

[5] = test system: bone marrow cell population; assay: In vivo reconstitution of the hematopoietic system, protein A damage, bone marrow composition; set-up: species or system NMRI mice; conditions: day 21, average of three mice
Source text: CD137 needs to be immobilized onto a carrier or crosslinked to be functional according to the invention. Protein A was chosen as a carrier for in vivo studies, as it has been effective in crosslinking CD137-Fc in the experiment described in Example 3. CD137-Fc or Fc control protein were immobilized on protein A and injected into NMRI mice. Besides immobilizing CD137-Fe or Fc, protein A has the additional effect of being toxic for cells of the hematopoietic system. This latter activity of protein A exerts a damaging effect on the hematopoietic system of mice as does chemotherapy.
Three mice per group were used. Each mouse received 100 μg of immobilized CD137-Fc or an equimolar amount of immobilized Fc or protein A alone. Mice were killed after 3 weeks and the bone marrow was isolated from the femurs and analysed (Table 2).

N[C@@H](Cc1ccc(N(CCCl)CCCl)cc1)C(=O)O [Alkeran]
Total number of leukocytes in the peripheral blood [1]: 830 per μl
Total number of thrombocytes in the peripheral blood [1]: 581.000 per μl
R1 (Bone marrow cells): 60.21 Percentage of total cells
R3 (Bone marrow cells): 0.66 Percentage of total cells
R4 (Bone marrow cells): 2.28 Percentage of total cells

CC[C@@]1(O)C(=O)OCc2c1cc1n(c2=O)Cc2cc3ccccc3nc2-1 [Camptothecin]
growth inhibition, erythroid lineage ([2]; 0.005 uM): minimal growth inhibition
growth inhibition, erythroid lineage ([2]; 0.05 uM): inhibited growth to a greater extent
growth inhibition, myeloid lineage ([3]; 0.005 uM): minimal growth inhibition
growth inhibition, myeloid lineage ([3]; 0.05 uM): inhibited growth to a greater extent
growth inhibition, megakaryocyte lineage ([4]; 0.005 uM): minimal growth inhibition
growth inhibition, megakaryocyte lineage ([4]; 0.05 uM): inhibited growth to a greater extent

Protein A: carrier for crosslinking CD137-Fc; toxic for cells of the hematopoietic system
R1 (91% erythroid) [5]: 69.18 Percentage of total cells
R3 (49% undifferentiated blasts, 25% lymphoblasts, 18% basophil erythroblasts) [5]: 1.81 Percentage of total cells
R4 (50% undifferentiated blasts, 30% myeloid mainly und. precursors, 20% erythroid) [5]: 1.97 Percentage of total cells
R5 (91% granulocytes) [5]: 1.12 Percentage of total cells
R6 (74% monocytes, 20% myeloid precursors) [5]: 0.63 Percentage of total cells
R5 (91% granulocytes) ([5]; listed as protein A): reduced drastically
R6 (74% monocytes, 20% myeloid precursors) ([5]; listed as protein A): reduced drastically
